What was measured:
[1] = Viscosity, ARES Rheometer, strain controlled mode; format: physicochemical; settings: 20-23° C.
Description: The ARES Rheometer manufactured by Rheometric Scientific™ was used for measuring viscosities in strain controlled mode. Fluid behavior of the microemulsions is different from conventional skin cleansers. They are Newtonian liquids, so the viscosity is constant with varying shear rate or time. […] As noted, the viscosities of the two microemulsions are much lower than for the competitors' liquid cleansers. However, low viscosity may ease penetration into crevices. Make-up removal efficacy may be directly related to product viscosity, i.e., an increased viscosity of a product caused a reduction in make-up removal. […] Pond's Clear Solutions® Deep Pore Foaming cleanser has an even lower viscosity than the microemulsions. It is packaged in a bottle with aeration upon dispensing, providing a thick and creamy foam. Microemulsions can be used as a cleansing milk or impregnated onto a non-woven.
To simulate the effect of sebum dissolution in washing process on the viscosity of the microemulsion, 2% model sebum was dissolved in microemulsion #1. From the results, one can expect that the good properties of the microemulsion, i.e., solvency and low viscosity, will be maintained during the washing process.

[2] = Cognis spreading area over fixed time, converted using oleyl oleate as control; cited from earlier work
[3] = Oil spreading time on human inner forearm (spreadability factor S^R); format: physicochemical; settings: 4 μL oil, 12 mm×8 mm ellipse on inner forearm; for Relative Spreading Time (spreadability factor S^R): normalized to oleyl oleate, data of present work; for spreading time: two panelists in duplicate
Description: As for oil “spreadability factor”, S^R, a semi-quantitative assay was developed by applicants to determine the spreading time for the different oils that have the potential to be used in microemulsions. First, an elliptic shape with 12 mm×8 mm diameters was marked on the inner forearm of a panelist. Because of the textural orientation of the skin, the spreading trace is usually in an elliptic shape. […] According to the test, 4 μL of the tested oil was dosed in the center of the area. The time when the oil arrived at the marked outline was recorded as the spreading time of the oil. The data were obtained on two panelists with duplicate tests for each oil. The average values were taken as the results. The spreading time of oleyl oleate was than used to normalize the measured values. For example, the spreading time for oleyl oleate is 1.3+0.03 minutes for IPM so the relative spreading time for IPM is 0.5/1.3=0.4. Thus, the spreadability factor, S^R, is ratio of spread rate of selected oil (measured in minutes) to spread rate of oleyl oleate (also measured in minutes).
Using this test, examples of oil spreading times are noted below: […]

Q: Which “Viscosity at Shear Rate 10 s^−1” value [1] does the source give for `O` [Water] here?
A: 1 mPa-s

Q: Which “Relative Spreading Time” value [2] does the source give for `CCCCCCCC/C=C\CCCCCCCCO` [Oleyl Alcohol] here?
A: 0.6

Q: Which “Relative Spreading Time (spreadability factor S^R)” value [3] does the source give for `CCCCCCCC(=O)OCC(COC(=O)CCCCCCC)OC(=O)CCCCCCC` [Glycerol Tricaprylate] here?
A: 0.9

Q: Which “Relative Spreading Time” value [2] does the source give for `CCCCCCCC/C=C\CCCCCCCCCCCC(=O)OCCCCCCCC/C=C\CCCCCCCC` [Oleyl Eructate] here?
A: 1.2

Q: Which “Relative Spreading Time” value [2] does the source give for `CCCCCCCCCCC(CO)CCCCCCCC` (centres unmarked) [Octyl Dodecanol] here?
A: 0.7

Q: For `CCCCCCCC/C=C\CCCCCCCCOC(=O)CCCCCCC/C=C\CCCCCCCC` [Oleyl Oleate, reference compound], which spreading time [3] is on record?
A: 1.3 ± 0.03 min

Q: And the “Relative Spreading Time (spreadability factor S^R)” value [3]?
A: 1

Q: What about the “Relative Spreading Time” value [2] of the same compound?
A: 1

Q: For `CCCCCCCCCCCCCCCC(=O)OC(C)C` [Isopropanol Palmitate], which “Relative Spreading Time (spreadability factor S^R)” value [3] is on record?
A: 0.7

Q: For Dioctyl Cyclohexane, which “Relative Spreading Time” value [2] is on record?
A: 0.5

Q: Which “Relative Spreading Time (spreadability factor S^R)” value [3] does the source give for `CC(C)CCCC(C)CCCC(C)CCCCC(C)CCCC(C)CCCC(C)C` (centres unmarked) [Squalane] here?
A: 1.0

Q: For `CC(C)=CCC/C(C)=C/CC/C(C)=C/CC/C=C(\C)CC/C=C(\C)CCC=C(C)C` [Squalene], which “Relative Spreading Time (spreadability factor S^R)” value [3] is on record?
A: 0.8

Q: With `CCCCCCCCCCCCCC(=O)OC(C)C` [Isopropanol Myristrate] as the compound, how does the spreading time [3] read?
A: 0.5 min

Q: And the “Relative Spreading Time (spreadability factor S^R)” value [3]?
A: 0.4

Q: What about the “Relative Spreading Time” value [2] of the same compound?
A: 0.4

Q: For `CCCCCCCCOCCCCCCCC` [Cetiol ® OE: Di-N-Octyl Ether, Di-N-Octyl Ether], which “Relative Spreading Time (spreadability factor S^R)” value [3] is on record?
A: 0.2

Q: For Pentahydrosqualene, which “Relative Spreading Time (spreadability factor S^R)” value [3] is on record?
A: 2.5

— patent publication US20030095990A1, “Microemulsion facial washes comprising specific oils” (Unilever Home & Personal Care USA, Division of Conopco, Inc., priority 2001, published 2003)
